Laboratory results as given in patent publication US20260159474A1, “Aminoindane Compounds and Compositions and Methods of Their Therapeutic Use” (Solvonis Therapeutics Ireland Holdings Limited, priority 2021, published 2026).
Where two headings read alike, the source gives them in different places.

Assays:
[1] = In vivo pharmacokinetics and brain penetration in rats after IV administration; details: rat; for Kp at 2 h: 2 hours post-administration, read-out: brain to plasma ratio; for Vd: read-out: Vss
Method: Group 1: Therapeutic compounds were administered via the IV route to three rats at a target dose level of 0.5 mg/kg. Blood and brain samples were collected at 2 h after IV administration. Group 2: Therapeutic compounds were administered via the IV route to three rats (brain penetration group) at a target dose level of 0.5 mg/kg. Blood and brain samples were collected at 2 h after IV administration. Group 3: Therapeutic compounds were orally administered to three rats at a target dose level of 1 mg/kg.
All test formulations were prepared on the day of administration prior to dosing, stored at room temperature, and used as soon as possible. Formulations were prepared and administered by volume IV dosing. Actual body weights were determined on the day of dose administration, and the dose volumes were adjusted to the weight of the animal at the time of dose administration.
Blood was collected into K3 EDTA tubes at each of the following time points post-administration:
Group 1 (IV): 0.083, 0.33, 1, 2, 4, 6, 8, and 24 hours after dosing Group 2 (IV): 2 hours after dosing for terminal brain analysis
All blood samples were thoroughly and gently mixed following collection and placed on wet ice. Within 0.5 h of collection, blood was centrifuged (3000 g for 10 minutes at approximately 4° C.). Within 0.5 hours, 20 μL of each plasma sample was transferred into micronic tubes containing 80 μL of 0.1N Hepes buffer (pH 7.0-7.5). Residual plasma was transferred in micronic tubes as a second aliquot.
Brain specimens were diluted with 4 volumes of 0.1 N Hepes buffer and homogenized using the Precellys system. Blood and brain samples were assayed using an optimized method based on protein precipitation with acetonitrile followed by HPLC/MS-MS analysis. Given the unknown stability of the analytes in blood and brain, calibration standards (CS) and quality control samples (QC) were prepared in blood and brain samples on the day of dosing and stored together with study samples. It is assumed that this procedure accounted for any possible analyte degradation.
Study samples, CS, QC, and blanks were spiked with an internal standard (IS), to improve the precision of the assay. Study samples were analyzed together with CS, QC and blank samples (including double blanks). From the calibration curve, the linear range of the analytical method was determined and the lower/upper limits of quantitation were specified.
The results of blood and brain specimens were subjected to non-compartmental pharmacokinetic analysis using Phoenix WinNonlin 6.3, with the following parameters reported: Calculated concentration of test items in the corresponding formulation (expressed as mg/mL), dose levels (expressed as mg/kg) for each compound, actual collection times (expressed as hh: mM), blood concentrations (expressed as ng/ml) for each compound, brain concentrations (expressed as ng/g) for each compound, PK parameters (iv: Cmax, AUC, CLp, Vss, t1/2, if applicable; oral (PO): Cmax, tmax, AUC, F %, Fa %, Eh, AUC BB ratio, if applicable) for each compound, and abnormal clinical signs and relevant findings, if any.

[2] = target: T1, human 5-HT2A receptor (Homo sapiens, UniProt P28223); assay: Intracellular calcium response (FLIPR) in CHO cells expressing human 5-HT2A receptor; assay type: cell-based; details: n=2; for 5-HT2A agonist mode pEC50: intracellular calcium; for 5-HT2A antagonist mode pIC50: inhibition of serotonin EC80 response
T1 construct: expressed in transfected cells; host or cells: CHO
T1 sequence (P28223 whole entry): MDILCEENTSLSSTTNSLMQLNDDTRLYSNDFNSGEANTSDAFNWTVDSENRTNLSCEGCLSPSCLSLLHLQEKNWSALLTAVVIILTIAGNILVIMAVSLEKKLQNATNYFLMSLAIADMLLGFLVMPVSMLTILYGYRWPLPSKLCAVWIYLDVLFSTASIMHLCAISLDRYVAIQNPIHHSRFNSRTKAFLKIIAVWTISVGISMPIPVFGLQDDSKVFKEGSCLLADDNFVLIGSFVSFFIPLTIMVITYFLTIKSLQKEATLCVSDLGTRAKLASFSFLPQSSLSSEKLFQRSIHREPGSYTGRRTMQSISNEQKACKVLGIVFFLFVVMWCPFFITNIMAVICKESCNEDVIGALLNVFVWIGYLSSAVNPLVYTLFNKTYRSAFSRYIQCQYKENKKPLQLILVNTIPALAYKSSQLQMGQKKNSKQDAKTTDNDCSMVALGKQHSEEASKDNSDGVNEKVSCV
Method: Methods: Selectivity for the 5-HT2A receptor was assessed by measuring [ICa2+]i in a CHO recombinant cell line stably expressing the human 5-HT2A receptor, using a Fluorometric Imaging Plate Reader (FLIPR TETRA, Molecular Devices).
The day before the experiment, CHO cells were seeded into black-wells clear-bottom 384-well plates at a density of 10,000 cells per well, in F-12K Medium (ThermoFisher #21127) supplemented with 10% dialyzed fetal bovine serum, and grown overnight at 37° C., 5% C02.
On the day of the experiment, the medium was replaced with assay buffer (20 miM HEPES, 145 mM NaCl, 5 mM KCl, 5.5 mM glucose, 1 mM MgCl2, 2 mM CaCl2 and 2.5 mM probenecid, pH 7.4) containing the cytoplasmic Ca2+ indicator Fluo-4 AM at 2 μM and 0.02% Pluronic F-127. After an incubation of 45-60 minutes at 37° C., 0% C02, cells were washed by Microplate Washer (BIOTEK) 384 with assay buffer, and the plate was transferred to the FLIPR TETRA. Then, intracellular fluorescence was measured in real time by FLIPR TETRA (excitation wavelength at 470-495 nm, emission wavelength at 515-575 nm), using a dual addition protocol.
In the first addition, test compounds (11 points of 1:4 serial dilution, 0.5% DMSO final) were added to the cell plate to evaluate their effect on intracellular calcium levels. In the event of a response, the signal was elaborated for the determination of pEC50/EC50 values.

[3] = brain and plasma, 0.5 mg/kg, IV
[4] = plasma, IV, 0.5 mg/kg, read-out: Clearance
[5] = plasma, IV, 0.5 mg/kg, read-out: Cmax

SMILES | AUCinf ([1]; IV, 1 mg/kg) [ng·h/mL] | AUClast ([1]; IV, 1 mg/kg) [ng·h/mL] | Clast ([1]; IV, 1 mg/kg) [ng/mL] | Cmax ([1]; IV, 1 mg/kg) [ng/mL] | T1/2 ([1]; IV, 1 mg/kg) [min] | Tlast ([1]; IV, 1 mg/kg) [h] | Vss ([1]; IV, 1 mg/kg) [L/kg] | clearance ([1]; IV, 1 mg/kg) [mL/min/kg] | 5-HT2A agonist mode pEC50 [2] | 5-HT2A antagonist mode pIC50 [2] | Kp at 2 h [1, 3] | AUC(0-inf) ([1]; plasma, IV, 0.5 mg/kg) [ng·h/mL] | AUC(0-t) ([1]; plasma, IV, 0.5 mg/kg) [ng·h/mL] | half-life ([1]; plasma, IV, 0.5 mg/kg) [min] | clearance [1, 4] [mL/min/kg] | Cmax [1, 5] [ng/mL] | Vd ([1]; plasma, IV, 0.5 mg/kg) [L/kg] | Clast ([1]; IV, 0.5 mg/kg) [ng/mL] | Tlast ([1]; IV, 0.5 mg/kg) [h] | Kp uu at 2 h ([1]; brain and plasma, intravenous, 0.5 mg/kg, assuming free plasma concentration equals total plasma concentration)
CNC(C)Cc1ccc2c(c1)OCO2 (stereo not drawn) [MDMA] | 384 | 367 | 12.1 | 625 | 57.2 | 4 | 3.02 | 45.6 | less than 4.3 | less than 4.3 | – | – | – | – | – | – | – | – | – | –
COC(=O)c1ccc2c(c1)CC(N)C2 (stereo not drawn) [CMP-405, 2-aminoindane-5-methylcarboxylate] | – | – | – | – | – | – | – | – | comparable to MDMA | comparable to MDMA | 2.12 | 334 | 330 | 19.8 | 25.5 | 808 | 0.602 | 8.08 | 2 | –
COc1ccc2c(c1)CC(N)C2 (stereo not drawn) [MEAI, 5-methoxy-2-aminoindane] | – | – | – | – | – | – | – | – | comparable to MDMA | comparable to MDMA | 2.21 | 788 | 773 | 29.6 | 10.6 | 1400 | 0.376 | 24.7 | 3 | 0.71
